Assay [1] concerns HCV genotype 1a replicon. Nature of the assay: HCV replicon assay, genotype 1a (cell ELISA for replicon-encoded NS3/4A). The class given is cell-based. To be noted: Hepatitis C virus, 96 h, read-out: 1a IC50. Here is the method: (§1) Measurement of inhibition by compounds was performed using the HCV replicon system. Several different replicons encoding different HCV genotypes or mutations were used. In addition, potency measurements were made using different formats of the replicon assay, including different ways of measurements and different plating formats. See Jan M. Vrolijk et al., A replicons-based bioassay for the measurement of interferons in patients with chronic hepatitis C, 110 J. V[…] 201 (2003); Steven S. Carroll et al., Inhibition of Hepatitis C Virus RNA Replication by 2′-Modified Nucleoside Analogs, 278(14) J. BIOLOGICAL CHEMISTRY 11979 (2003). However, the underlying principles are common to all of these determinations, and are outlined below.
(§2) Stable neomycin phosphotransferase encoding replicons-harboring cell lines were used, so all cell lines were maintained under G418 selection prior to the assay. Potency was determined using a cell ELISA assay with an antibody to the replicons encoded NS3/4a protease. See Caterina Trozzi et al., In Vitro Selection and Characterization of Hepatitis C Virus Serine Protease Variants Resistant to an Active-Site Peptide Inhibitor, 77(6) J. Virol. 3669 (2003). To initiate an assay, replicon cells were plated in the presence of a dilution series of test compound in the absence of G418. Typically, the assays were performed in a 96-well plate formate for manual operation, or a 384-well plate format for automated assay. Replicon cells and compound were incubated for 96 hours. At the end of the assay, cells were washed free of media and compound, and the cells were then lysed. RNA was quantified indirectly through detection of replicon-encoded NS3/4A protein levels, through an ELISA-based assay with an antibody specific for NS3/4A. IC50 determinations were calculated as a percentage of a DMSO control by fitting the data to a four-parameter fit function and the data obtained is provided in the table below.
(§3) Data for selected compounds of the present invention was obtained for genotypes 1a and 1b using this method and is provided in the table below: […]
A general note: Replicon systems follow genome replication, usually without infectious particles.

The test system of assay [2] is HCV genotype 1b replicon. Nature of the assay: HCV replicon assay, genotype 1b (cell ELISA for replicon-encoded NS3/4A). It is filed as cell-based. Particulars: Hepatitis C virus, 96 h, read-out: 1b IC50. Here is the method: as §1, §2, §3

SMILES strings stand for the structures.

Consider `CNC(=O)c1c(C2=CCCC2)oc2cc(N(C)S(C)(=O)=O)c(-c3ncc4c(n3)-c3cc5c(F)cccc5n3CO4)cc12` [Compound 47], for which the IC50 (commonly the concentration at which inhibition is half-maximal) is 5.9 nM in assay [1] and 8.8 nM in assay [2].

In the case of `CNC(=O)c1c(C23CCCC2C3)oc2cc(N(C)S(C)(=O)=O)c(-c3ccc4c(n3)-c3cc5c(F)cccc5n3CO4)cc12` (stereo not drawn) [Compound 48, 2-(bicyclo[3.1.0]hexan-1-yl)-5-(11-fluoro-6H-pyrido[2′,3′:5,6][1,3]oxazino[3,4-a]indol-2-yl)-N-methyl-6-(N-methylmethylsulfonamido)benzofuran-3-carboxamide], the half-inhibitory concentration (IC50) in assay [1] is 28 nM; in assay [2], 34 nM.

As to `CNC(=O)c1c(-c2ccc(C)nc2)oc2cc(N(C)S(C)(=O)=O)c(-c3ccc4c(n3)-c3cc5c(F)cccc5n3CO4)cc12` [Compound 7], the values for the IC50 in assay [1] and in assay [2] were 8.5 nM and 13 nM, respectively.

`CNC(=O)c1c(-c2ccc(C(F)(F)F)nc2)oc2cc(N(C)S(C)(=O)=O)c(-c3ccc4c(n3)-c3cc5c(F)cccc5n3CO4)cc12` [Compound 35]: the IC50 turned out to be 2.8 nM in assay [1] and 3.1 nM in assay [2].

For the compound `CNC(=O)c1oc2cc(N(C)S(C)(=O)=O)c(-c3ccc4c(n3)-c3cc5c(F)cccc5n3CO4)cc2c1C(=O)NC` [Compound 54, 5-(11-fluoro-6H-pyrido[2′,3′:5,6][1,3]oxazino[3,4-a]indol-2-yl)-N2,N3-dimethyl-6-(N-methylmethylsulfonamido)benzofuran-2,3-dicarboxamide], the IC50 stood at 4.3 nM in assay [1] and 7.1 nM in assay [2].

For `CNC(=O)c1c(-c2ccc(OCC(F)(F)F)nc2)oc2cc(N(C)S(C)(=O)=O)c(-c3ccc4c(n3)-c3cc5c(F)cccc5n3CO4)cc12` [Compound 12], the values for the IC50 in assay [1] and in assay [2] were 2.7 nM and 1.8 nM, respectively.

In the case of `CNC(=O)c1c(-c2ccc(F)nc2)oc2cc(N(C)S(C)(=O)=O)c(-c3ccc4c(n3)-c3cc5c(F)cccc5n3CO4)cc12` [Compound 4], the results for the IC50 in assay [1] and in assay [2] were 3 nM and 6.1 nM, respectively.

`CNC(=O)c1c(-c2ccc(C(F)F)nc2)oc2cc(N(C)S(C)(=O)=O)c(-c3ccc4c(n3)-c3cc5c(F)cccc5n3CO4)cc12` [Compound 9]: the IC50 in assay [1] stood at 2.5 nM; in assay [2], 3.4 nM.

For the compound `CNC(=O)c1c(-n2ccc(C)cc2=O)oc2cc(N(C)S(C)(=O)=O)c(-c3ccc4c(n3)-c3cc5c(F)cccc5n3CO4)cc12` [Compound 38], the IC50 in assay [1] turned out to be 3.5 nM; in assay [2], 2.7 nM.

In the case of `CNC(=O)c1c(C2CC2)oc2cc(N(C)S(C)(=O)=O)c(-c3ncc4c(n3)-c3cc5c(F)cccc5n3CO4)cc12` [Compound 53], the IC50 was determined as 33 nM in assay [1] and 30 nM in assay [2].

`CNC(=O)c1c(C(=O)N2CCOCC2)oc2cc(N(C)S(C)(=O)=O)c(-c3ccc4c(n3)-c3cc5c(F)cccc5n3CO4)cc12` [Compound 57]: the values for the IC50 in assay [1] and in assay [2] were 232 nM and 135 nM, respectively.

Regarding `CNC(=O)c1c(-c2ccc(=O)n(C(F)F)c2)oc2cc(N(C)S(C)(=O)=O)c(-c3ccc4c(n3)-c3cc5c(F)cccc5n3CO4)cc12` [Compound 26, 2-(1-(difluoromethyl)-6-oxo-1,6-dihydropyridin-3-yl)-5-(11-fluoro-6H-pyrido[2′,3′:5,6][1,3]oxazino[3,4-a]indol-2-yl)-N-methyl-6-(N-methylmethylsulfonamido)benzofuran-3-carboxamide], the 50% inhibitory concentration (IC50) in assay [1] is 118 nM; in assay [2], 108 nM.

Consider `CNC(=O)c1c(-c2cnn(C(C)C)c2)oc2cc(N(C)S(C)(=O)=O)c(-c3ccc4c(n3)-c3cc5c(F)cccc5n3CO4)cc12` [Compound 34], for which the IC50 in assay [1] worked out at 15 nM; in assay [2] it was 14 nM.

For the compound `CCn1cc(-c2oc3cc(N(C)S(C)(=O)=O)c(-c4ccc5c(n4)-c4cc6c(F)cccc6n4CO5)cc3c2C(=O)NC)cn1` [Compound 14], the IC50 in assay [1] came to 9.1 nM; in assay [2], 18 nM.

Consider `CNC(=O)c1c(-n2ccccc2=O)oc2cc(N(C)S(C)(=O)=O)c(-c3ccc4c(n3)-c3cc5c(F)cccc5n3CO4)cc12` [Compound 37], for which the IC50 stood at 2.2 nM in assay [1] and 3 nM in assay [2].

With `CNC(=O)c1c(C=C(C)C)oc2cc(N(C)S(C)(=O)=O)c(-c3ccc4c(n3)-c3cc5c(F)cccc5n3CO4)cc12` [Compound 3], the IC50 in assay [1] was determined as 3.6 nM; in assay [2], 5.8 nM.

Consider `CNC(=O)c1c(-c2ccc(C(F)(F)F)cn2)oc2cc(N(C)S(C)(=O)=O)c(-c3ccc4c(n3)-c3cc5c(F)cccc5n3CO4)cc12` [Compound 31], for which the IC50 in assay [1] came to 5.9 nM; in assay [2], 3.9 nM.

As to `CNC(=O)c1c(-n2cc(C)cn2)oc2cc(N(C)S(C)(=O)=O)c(-c3ccc4c(n3)-c3cc5c(F)cccc5n3CO4)cc12` [Compound 39], the IC50 was determined as 48 nM in assay [1] and 67 nM in assay [2].

As for `CNC(=O)c1c(-c2ccc(Oc3ccc(F)cc3)nc2)oc2cc(N(C)S(C)(=O)=O)c(-c3ccc4c(n3)-c3cc5c(F)cccc5n3CO4)cc12` [Compound 27, 5-(11-fluoro-6H-pyrido[2′,3′:5,6][1,3]oxazino[3,4-a]indol-2-yl)-2-(6-(4-fluorophenoxy)pyridin-3-yl)-N-methyl-6-(N-methylmethylsulfonamido)benzofuran-3-carboxamide], the IC50 in assay [1] was found to be 23 nM; in assay [2] it was 34 nM.

Take `CNC(=O)c1c(-c2cnc(OC)nc2)oc2cc(N(C)S(C)(=O)=O)c(-c3ccc4c(n3)-c3cc5c(F)cccc5n3CO4)cc12` [Compound 13]: the half-maximal inhibitory concentration (IC50) in assay [1] came out at 16 nM; in assay [2], 9.4 nM.

Turning to `CNC(=O)c1c(-c2ccc(OC)nc2)oc2cc(N(C)S(C)(=O)=O)c(-c3ccc4c(n3)-c3nc5cccc(F)c5n3CO4)cc12` [Compound 19, 5-(8-fluoro-6H-benzo[4,5]imidazo[1,2-c]pyrido[2,3-e][1,3]oxazin-2-yl)-2-(6-methoxypyridin-3-yl)-N-methyl-6-(N-methylmethylsulfonamido)benzofuran-3-carboxamide], the IC50 came to 35 nM in assay [1] and 13 nM in assay [2].

For the compound `CNC(=O)c1c(-c2ccc(C(F)(F)F)cc2)oc2cc(N(C)S(C)(=O)=O)c(-c3ccc4c(n3)-c3cc5c(F)cccc5n3CO4)cc12` [Compound 8], the IC50 was determined as 6.3 nM in assay [1] and 4.5 nM in assay [2].

For `CNC(=O)c1c(-c2ccc(C(F)F)cc2)oc2cc(N(C)S(C)(=O)=O)c(-c3ccc4c(n3)-c3cc5c(F)cccc5n3CO4)cc12` [Compound 28, 2-(4-(difluoromethyl)phenyl)-5-(11-fluoro-6H-pyrido[2′,3′:5,6][1,3]oxazino[3,4-a]indol-2-yl)-N-methyl-6-(N-methylmethylsulfonamido)benzofuran-3-carboxamide], the values for the half-inhibitory concentration (IC50) in assay [1] and in assay [2] were 9 nM and 6.9 nM, respectively.

For the compound `CNC(=O)c1c(-c2ccc(OC(F)(F)F)cc2)oc2cc(N(C)S(C)(=O)=O)c(-c3ccc4c(n3)-c3cc5c(F)cccc5n3CO4)cc12` [Compound 33], the IC50 in assay [1] worked out at 50 nM; in assay [2], 2.5 nM.

Turning to `CNC(=O)c1c(C2=CCCC2)oc2cc(N(C)S(C)(=O)=O)c(-c3ncc4c(n3)-c3cc5ccccc5n3CO4)cc12` [Compound 46], the IC50 in assay [1] was found to be 15 nM; in assay [2], 13 nM.

Turning to `CNC(=O)c1c(C2=CCSCC2)oc2cc(N(C)S(C)(=O)=O)c(-c3ccc4c(n3)-c3cc5c(F)cccc5n3CO4)cc12` [Compound 32, 2-(3,6-dihydro-2H-thiopyran-4-yl)-5-(11-fluoro-6H-pyrido[2′,3′:5,6][1,3]oxazino[3,4-a]indol-2-yl)-N-methyl-6-(N-methylmethylsulfonamido)benzofuran-3-carboxamide], the IC50 is 36 nM in assay [1] and 14 nM in assay [2].

As to `CNC(=O)c1c(N2CCOC2=O)oc2cc(N(C)S(C)(=O)=O)c(-c3ccc4c(n3)-c3cc5c(F)cccc5n3CO4)cc12` [Compound 43], the results for the IC50 in assay [1] and in assay [2] were 21 nM and 50 nM, respectively.

In the case of `CNC(=O)c1c(C(=O)N2CCC2)oc2cc(N(C)S(C)(=O)=O)c(-c3ccc4c(n3)-c3cc5c(F)cccc5n3CO4)cc12` [Compound 56], the IC50 in assay [1] came out at 5 nM; in assay [2], 11 nM.

Consider `CNC(=O)c1c(C2=CCCC2)oc2cc(N(C)S(C)(=O)=O)c(-c3ccc4c(n3)-c3cc5c(F)cccc5n3CO4)cc12` [Compound 45], for which the concentration for half-maximal inhibition (IC50) in assay [1] stood at 6.1 nM; in assay [2], 6.4 nM.

As to `CNC(=O)c1c(C2=CCCC2)oc2cc(N(C)S(C)(=O)=O)c(-c3ccc4c(n3)-c3cc5ccccc5n3CO4)cc12` [Compound 44, 2-(cyclopent-1-en-1-yl)-N-methyl-6-(N-methylmethylsulfonamido)-5-(6H-pyrido[2′,3′:5,6][1,3]oxazino[3,4-a]indol-2-yl)benzofuran-3-carboxamide], the figures for the IC50 in assay [1] and in assay [2] were 6.2 nM and 8.3 nM, respectively.
